Data on three compounds can be found in US20140099385A1, “INHIBITION OF FATTY ACID AND C[…] BY CARBON MONOXIDE (CO)” (priority 2011, published 2014).

Series [1] addresses PGRMC1 (Homo sapiens, UniProt O00264). Briefly: Absorption spectrum of the PGRMC1 protein (CO binding to heme). Particulars: FIG. 3. An excerpt:
FIG. 3 is the graphs showing the absorption spectrum of the PGRMC1 protein.
Furthermore, PGRMC1 (Progesterone Receptor Membrane associated Component 1) was identified as one of the molecules involved with the inhibition of fatty acid or cholesterol uptake by CO. PGRMC1 is a heme binding protein, and an absorption peak is thought to have appeared at 419 nm because CO bound to the heme of PGRMC1 (FIG. 3). […] Thus, when the PGRMC1 gene was knocked down in a cell, the uptake of a fatty acid was suppressed (FIG. 4).

For series [2] the following is noted: 25° C.; cited from earlier work.
Series [3] concerns human hepatoma cell line HuH7 cell. Briefly: Stearic acid uptake inhibition in a cell by CO (Nile Red staining, fluorescence microscope). In kind it is cell-based. Particulars: 400 μM stearic acid, 1 μM test substance, 12 hours, FIG. 1. How it is done: The human hepatoma cell line HuH7 cell was seeded in a 6-well plate (Iwaki) covered with a slide glass (1 cm^2; matsunami glass) and cultured using DMEM+10% FCS in a CO2 incubator overnight. After the culture, the medium was discarded, 1% BSA (Wako Pure Chemical Industries, Ltd.) wherein stearic acid (sigma) was dissolved in serum free DMEM to give a final concentration of 400 μM was added thereto, and the cell was cultured again for 12 hours in a CO2 incubator. Further, as a CO sustained-release drug, 1 μM of CO—Ru (Sigma CORM2 ([Ru(CO)3Cl2]2)) was used) or 1 μM of ruthenium complex as a control was added together with a fatty acid to carry out the culture. Subsequently, the medium was discarded, the cell was washed 3 times with PBS, and Nile Red reagent (sigma) dissolved in PBS on the slide glass so as to be 100 ng/ml was added to react for 5 minutes, thereby staining the fatty acid. Further, the cell was washed 3 times with PBS, DAPI reagent (2 ng/ml; Wako Pure Chemical Industries, Ltd.) was added to react for 5 minutes, thereby staining the nucleus. The nucleus was observed using a fluorescence microscope, whereby Nile Red derived Green fluorescence as the fatty acid and DAPI derived Blue fluorescence were detected. […]

In series [4] the test system is HuH7 cell. The series can be described thus: LDL uptake inhibition in a cell by CO (FITC-conjugated LDL, fluorescence microscope). The series is classed as cell-based, human. Particulars: FITC-conjugated LDL 8 mg/ml, 1 μM CO—Ru, 2 hours, FIG. 2. How it is done: After culturing the HuH7 cell in the same manner as above in a dish covered with a slide glass, the medium was discarded, and fluorescence-labeled FITC-conjugated LDL (Molecular Probes) was added to serum free DMEM so as to give the final concentration of 8 mg/ml to carry out the culture for 2 hours (control). Additionally, at the same time with this procedure, 1 μM of CO—Ru was added in the same manner as above to carry out the analysis. After culturing, the medium was discarded, the cell was washed 3 times with PBS and DAPI reagent (2 ng/ml; Wako Pure Chemical Industries, Ltd.) was added to react for 5 minutes. The observation was carried out using a fluorescence microscope, whereby FITC-LDL derived Green fluorescence as the […] and DAPI derived Blue fluorescence were detected. […] On the other hand, in the cell to which CO—Ru was added, the margin of blue stained area is not stained green.

For series [5], the system named is HuH7 cell. Briefly: Stearic acid and palmitic acid uptake in a cell wherein the PGRMC1 gene is knocked down by siRNA. The series is classed as cell-based, human. Particulars: HuH7 cell transfected with siRNA. How it is done: In the experiment of Example 1, siRNA (sequence: […]) (SEQ ID NO: 1) targeting PGRMC1 was transfected to the cell line HuH7 cell derived from human hepatocellular carcinoma by the lipofection method (Lipofectamin 2000, INVITROGEN Corporation) to knockdown the PGMRMC1 gene. In the same manner as in Example 1, 1% BSA (Wako Pure Chemical Industries, Ltd.) wherein stearic acid (sigma) or palmitic acid was dissolved to give the final concentration of 400 μM was added to the HuH7 cell wherein the PGRMC1 gene was knocked down, and the cell was cultured. The medium was discarded, the cell was washed 3 times with PBS, and Nile Red reagent (sigma) dissolved in PBS on the slide glass so as to be 100 ng/ml was added to react for 5 minutes, thereby staining the fatty acid. Further, the cell was washed 3 times with PBS, DAPI reagent (2 ng/ml; Wako Pure Chemical Industries, Ltd.) was added to react for 5 minutes, thereby staining the nucleus. The nucleus was observed using a fluorescence microscope, whereby Nile Red derived Green fluorescence as the fatty acid and DAPI derived Blue fluorescence were detected. […] On the other hand, when palmitic acid (FIG. 4C) or stearic acid (FIG. 4D) was added to the cell wherein the PGRMC1 gene was knocked down, the margin of blue stained area is not stained green.

Chain of PGRMC1 (O00264 whole entry, species assumed): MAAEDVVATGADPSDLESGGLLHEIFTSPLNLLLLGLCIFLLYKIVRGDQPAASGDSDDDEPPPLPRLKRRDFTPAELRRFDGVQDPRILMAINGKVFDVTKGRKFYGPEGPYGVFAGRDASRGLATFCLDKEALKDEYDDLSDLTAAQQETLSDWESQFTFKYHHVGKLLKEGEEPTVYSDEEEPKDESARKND

For `[C-]#[O+]` [CO, carbon monoxide], the “absorption peak on CO binding to the heme of PGRMC1” value in series [1] was 419 nm. Also, in series [2], the “amount of CO that can be dissolved in aqueous solution” value was “about 21.4 mL per liter”.

With `[C-]#[O+].[C-]#[O+].[C-]#[O+].[C-]#[O+].[C-]#[O+].[C-]#[O+].[Cl][Ru][Cl].[Cl][Ru][Cl]` [CO—Ru, [Ru(CO)3Cl2]2], the “uptake of stearic acid in the cell (green Nile Red staining)” value in series [3] is “the uptake of stearic acid was inhibited”. Also, the “uptake of LDL in the cell (FITC-LDL green fluorescence)” value in series [4] is recorded as “the uptake of LDL was inhibited”.

With “siRNA: siRNA (sequence: GAUGUGACCAAAGGCCCGCAAAUUCU) targeting PGRMC1 (listed as RNA, chemistry not given here)”, the “uptake of palmitic acid in the PGRMC1 knockdown cell” value in series [5] (400 μM palmitic acid, FIG. 4C) is “inhibited”. Moreover, the “uptake of stearic acid in the PGRMC1 knockdown cell” value in series [5] (400 μM stearic acid, FIG. 4D) was “inhibited”.
